In patent publication US7795223B2, “Treatment of inflammatory airway disease” (Novozymes Biopharma Au Ltd., priority 2004, dated 2010):

Experiments:
[1] = test system: BALB/c mice; assay: Murine OVA model of asthma: BAL cell counts and lung histology; assay type: in vivo, mouse; details: for eosinophilia on lung histology / eosinophil infiltration into lung tissue: peptide i.n. 24 h before i.n. OVA challenge
Experimental: A murine model in which immunization with ovalbumin (OVA) is used to induce asthma-like symptoms in normal Balb/c mice was employed. This model is described in Archer et al. 2004.
Mice were immunized against OVA by i.p. injection and fourteen days later an intra-nasal (i.n.) challenge dose of OVA protein was administered. Three days later the degree of airway inflammation was assessed by bronchoalveolar lavage (BAL,) followed by counting the infiltrating leukocytes. In addition, the lungs were sectioned and stained with haematoxylin and eosin for histological analysis. In a preliminary experiment, live mice were monitored after treatment using whole body plethysmography to assess the degree of airway obstruction.
Female BALB/c mice (6-8 wk of age) were injected i.p. with 10 μg of OVA (Sigma-Aldrich, St. Louis, Mo.) in 200 μl of alum adjuvant (Serva, Heidelberg, Germany) on day 1. Fourteen days after the i.p. immunization, mice were anaesthetized by an i.p. injection of a mixture of ketamine and xylazine (Sigma-Aldrich), and treated i.n. with 50 μl of PBS containing 100 μg of OVA.
In preliminary experiments the peptide or “mock” peptide was given at either of two different time points (24 h prior to i.p. OVA sensitization or 24 h prior to i.n. OVA challenge) at a final concentration of either 1 mM (solution) or 50 mM (suspension) in phosphate-buffered saline (PBS; 0.02 M sodium phosphate buffer with 0.15 M sodium chloride, pH adjusted to 7.4.). The 50 mM concentration of the TCR peptide was chosen because 500 μM was the optimal blocking concentration for T cells in in vitro experiments. However, experiments using titration of the peptide will be used to determine the optimal dose. A 100 μl volume of formulated peptide was administered to the mice intranasally. […]
Three days after the i.n. challenge with OVA, the mice from the different groups were sacrificed, the tracheas were cannulated, and a BAL was performed by flushing lung and airways five times with 1 ml of PBS. BAL cells were counted and spun on to glass slides using a cytospin (Shandon Southern Products, Asmoor, U.K.), and then stained with Diff-Quik (Roche Diagnostics, Mannheim, Germany) according to the manufacturer's instructions. […]
Percentages of macrophages, lymphocytes, neutrophils, and eosinophils were determined microscopically using standard histological criteria.
On days 1-6 after the last intranasal challenge with either OVA or saline, the lungs were analyzed by histology. […] The number of eosinophils in the lungs was quantified microscopically using a calibrated stage. […]

[2] = test system: BALB/c mice; assay: Whole body plethysmography of airway obstruction in the murine OVA model; assay type: in vivo, mouse; details: preliminary experiment, peptide before allergen challenge, days 0-6
Experimental: Mice were immunized against OVA by i.p. injection and fourteen days later an intra-nasal (i.n.) challenge dose of OVA protein was administered. Three days later the degree of airway inflammation was assessed by bronchoalveolar lavage (BAL,) followed by counting the infiltrating leukocytes. In addition, the lungs were sectioned and stained with haematoxylin and eosin for histological analysis. In a preliminary experiment, live mice were monitored after treatment using whole body plethysmography to assess the degree of airway obstruction. The effects of antigen challenge on airway hyperreactivity of mice in the experimental model described above can be measured by whole body plethysmography. This can be used to make an accurate comparison with the airway hyperreactivity observed in human asthmatics. The mice are anesthetized with pentobarbitol (70-90 mg/kg body weight, i.p.), and the jugular vein is cannulated with PE 10 silastic tubing. The tracheae are then intubated with a specially-angled 18 gauge needle, the chest opened, and the tubing connected to a Harvard ventilator (tidal volume=0.2 ml, frequency 120 breaths/min, positive end-expiratory pressure 2.5-3.0 cm H2 O) and placed in a whole body plethysmograph. This ventilation maintains normal arterial blood gases in the subject mouse. The dead space volume is 0.025 ml. […]

[3] = test system: Brown Norway rats; assay: Brown Norway rat OVA model of asthma: BAL leukocytes, eosinophil peroxidase and myeloperoxidase; assay type: in vivo; details: administration prior to challenge with allergen
Experimental: The Brown Norway rat model was also employed to test the effects of TCR mimic peptides on reducing the symptoms of asthma. Similarly to the murine model described above, this model also involves immunisation with OVA. The model is described in Elwood, 1991. The model is illustrated in FIG. 5. In this model 10 rats were used per treatment group.
Rats were immunized against OVA by s.c. injection on Day 1, 14 and 21, and on Day 28 an inhalation challenge dose of OVA protein was administered. One day later (Day 29) the degree of airway inflammation was assessed by bronchoalveolar lavage (BAL), followed by counting of the infiltrating leukocytes and measurement of the activity of eosinophil peroxidase and myeloperoxidase.
Male Brown Norway rats (approximately 8 wks of age) were injected s.c. with 10 μg of OVA in 1 ml of alum adjuvant on day 1, 14 and 21. Concurrently, the animals received an i.p. injection of 0.25 ml Bordetella pertussis vaccine (Trivax-Evans Medical). Seven days. after the final sensitizing dose, the animals were restrained and exposed, nose only, to an aerosol of 10 mg/ml OVA for 1 h using a Wright nebuliser.
In these experiments the peptide was administered either intra-tracheally (i.t) (3 mg/ml, 50 μl in 0.9% saline per rat, 24 hours before OVA challenge), intra-nasally (i.n.) (50 mg/ml, 100 μl in 0.9% saline per rat, 24 hours before OVA challenge) or by inhalation (0.1 mg/ml in 0.9% saline, 50 ml delivered by aerosol at a flow rate of 1 ml/min, for a total of 50 minutes, using a Wright nebuliser to ten (10) rats, 24 h and 4 h prior to OVA challenge). […]
Twenty-four hours after the challenge with OVA, the rats from the different groups were anaesthetized by an i.p injection of sodium pentobarbital (100 mg/kg). […] The BAL fluid was centrifuged and the collected cells resuspended in 2 ml of PBS and the total number of leukocytes recovered were counted. The activity of eosinophil peroxidase and myeloperoxidase in the supernatant, following centrifugation (i.e., the cell-free BAL fluid) was determined by the method described in Schneider et al. 1997.

[4] = test system: T cells; assay: Blocking of T cell function; assay type: cell-based; details: in vitro experiments
[5] = test system: sensitised animals; details: applied topically following application of a contact allergen; cited from earlier work
[6] = test system: human patients with psoriasis, atopic eczema, lichen planus, or contact dermatitis; details: cited from earlier work

## NH2-Gly-Leu-Arg-Ile-Leu-Leu-Leu-Lys-Val-OH (H-GLRILLLKV-OH) [peptide, 9 amino acids, murine TCR-α transmembrane chain]
[1]; asthmatic mice, non-transgenic system
  asthma symptoms: reduces asthma symptoms
[1]; group C: peptide i.n. 24 h before i.n. OVA challenge, two independent experiments, pooled data
  eosinophilia in BAL: significant decrease
[1]; two independent experiments, pooled data
  eosinophilia on lung histology / eosinophil infiltration into lung tissue: significant decrease
[1]; two independent experiments, pooled data, listed as TCR mimic peptide
  eosinophilia on lung histology / eosinophil infiltration into lung tissue: marked reduction
[2]
  airway obstruction measured by whole body plethysmography: significant effects
[2]; listed as TCR mimic peptide
  airway obstruction measured by whole body plethysmography: significant reduction
[3]
  eosinophil peroxidase activity in bronchoalveolar lavage fluid: reduction
  leukocyte infiltration into lung tissue: marked reduction
  myeloperoxidase activity in bronchoalveolar lavage fluid: reduction
[4]
  optimal blocking concentration for T cells: 500 µM
[5]
  development of contact sensitivity: inhibited development of contact sensitivity
[6]
  therapeutic activity in human patients: showed therapeutic activity
